Experiments:
[1] = test system: HCV; settings: Ribavirin alone, cited from earlier work
[2] = test system: HCV sub-genomic replicon in FCA 4 cells; format: cell-based, hepatitis C virus
Source text: FCA-4 sub genomic replicon was bicistronic construct composed of the HCV IRES (nucleotides 1 to 377 of the 5′NCR); the neomycin phosphotransferase (neo) gene; the encephalomyocarditis IRES, which mediates the translation of HCV nonstructural proteins NS3 through NS5; and the 3′NCR as shown in FIG. 2. […] FCA-4 sub-genomic replicon consists of single adaptive mutation and a deletion of a serine residue at position 1176 (Guo et al, 2001).
The bicistronic RNA molecule contains the HCV IRES and a few core-coding sequences, which are followed by neomycin phosphotransferase gene (Neor). These sequences are followed by the encephalomyocarditis virus IRES placed in front of HCV sequences encoding nonstructural protein NS3 to NS5B, terminating at the HCV 3NCR.
To determine the antiviral effect against HCV, FCA 4 cells were seeded in six well plates. After 24 h, media containing 20 μM of test compound was added to the plates. Cells were incubated at 37° C. in CO2 incubator for additional 48 h. At the end of the incubation, cells were harvested, RNA was extracted and cDNA were generated by oligo dT priming. cDNA was amplified by PCR using primers specific to the 5′UTR and NS5B gene of HCV. Amplification of GAPDH mRNA served as an internal control. […]

[3] = test system: HCV 3a genotype in MDBK cells; test: Synergy with interferon-α against HCV in MDBK cells (real time Quantitative RT-PCR); format: cell-based, hepatitis C virus; settings: with interferon-α 5 IU/well, 6 hrs pre-incubation, HCV 3a 2×10^4 copies per well, 18 hrs
Procedure: Surprising synergism was recorded when Compound 1 was combined with Interferon alpha. […] MDBK cells were incubated for 6 hrs with compounds and interferon alone, or combination of compound and interferon in a 96-well plat. After 6 hrs cells were infected with 2×10^4 copies of HCV 3a genotype per well and incubated for additional 18 hrs. At the end of incubation period, total RNA was extracted by Gentra kit, and the levels of HCV RNA remaining were determined, by real time Quantitative RT-PCR assay and are shown as percentage of HCV RNA survival in cells. Results are represented as the average and standard error for three independent experiments.

[4] = biological target: HCV protease (Hepatitis C virus genotype 1a, UniProt P26664); settings: SDS-PAGE and autoradiography assay; cited from earlier work
HCV protease, sequence (P26664 1027-1657): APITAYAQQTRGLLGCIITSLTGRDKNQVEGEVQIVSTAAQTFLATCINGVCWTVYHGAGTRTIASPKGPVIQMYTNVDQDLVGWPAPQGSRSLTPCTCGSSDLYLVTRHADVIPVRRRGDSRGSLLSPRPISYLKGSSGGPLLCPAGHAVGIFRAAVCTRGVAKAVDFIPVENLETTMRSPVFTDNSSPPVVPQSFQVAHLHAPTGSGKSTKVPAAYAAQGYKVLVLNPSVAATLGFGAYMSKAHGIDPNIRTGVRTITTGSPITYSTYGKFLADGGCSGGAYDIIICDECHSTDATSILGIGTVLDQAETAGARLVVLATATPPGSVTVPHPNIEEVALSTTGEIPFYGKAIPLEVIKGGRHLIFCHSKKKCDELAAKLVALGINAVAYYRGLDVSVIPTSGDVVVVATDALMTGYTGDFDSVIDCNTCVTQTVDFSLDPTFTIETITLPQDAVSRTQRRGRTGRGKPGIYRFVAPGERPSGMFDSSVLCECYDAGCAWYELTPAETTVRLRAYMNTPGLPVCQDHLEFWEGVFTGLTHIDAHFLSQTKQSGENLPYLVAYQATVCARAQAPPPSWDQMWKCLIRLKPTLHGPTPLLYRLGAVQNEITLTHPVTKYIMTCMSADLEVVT

Compound: NC(=O)c1ncn([C@@H]2O[C@H](CO)[C@@H](O)[C@H]2O)n1 [Ribavirin, 1-β-D-ribofuranosyl-1-1,2,4-triazole-3-carboxamide]
- Serum levels of HCV-RNA ([1]; patients): does not lower
- Patients in whom serum amino transferase levels are reduced to normal [1]: 40%

Compound: Nn1c(-c2ccc([N+](=O)[O-])cc2)nc2ccccc2c1=O [Compound 1, 3-amino-2-(4-nitrophenyl)-4-(3H)-quinazolinone]
- Cytotoxicity in relation to antiviral suppression [2]: independent of cytotoxicity
- HCV RNA expression ([2]; 20 μM, 48 h, PCR with primers for 5′UTR and NS5B): inhibited HCV RNA expression significantly
- Antiviral activity in combination with interferon-α (HCV RNA survival) [3]: synergistic effect

Compound: CCCC(=O)c1cc2c(c(O)c1C)C(=O)C(=O)c1c(O)cccc1-2 [Sch 68631]
- Activity against HCV protease [4]: micromolar activity

Reference: patent publication US8809354B2, “3-amino-2-(4-nitrophenyl)-4-(3H)-quinazolinone or derivatives thereof for treating or preventing antiviral infections” (priority 2011, dated 2014)
